Test results: patent publication US9686992B2, “Pesticidal mixtures including spiroheterocyclic pyrrolidine diones” (Syngenta Participations AG, priority 2012, dated 2017)

How the values were obtained:
[1] = tested on: Myzus persicae (Green Peach Aphid); assay: Myzus persicae feeding/residual contact activity, preventive (sunflower leaf discs); format: in vivo; settings: single active ingredient, 6 DAT
Excerpt: (§1) The action to be expected E for a given active ingredient combination obeys the so-called COLBY formula and can be calculated as follows (COLBY, S. R. “Calculating synergistic and antagonistic responses of herbicide combination”. Weeds, Vol. 15, pages 20-22; 1967):
(§2) ppm=milligrams of active ingredient (=a.i.) per liter of spray mixture
(§3) X=% action by active ingredient A) using p ppm of active ingredient
(§4) Y=% action by active ingredient B) using q ppm of active ingredient.
(§5) According to COLBY, the expected (additive) action of active ingredients A)+B) using p+q ppm of active ingredient is
(§6) If the action actually observed (0) is greater than the expected action (E), then the action of the combination is super-additive, i.e. there is a synergistic effect. In mathematical terms the synergism factor SF corresponds to O/E. In the agricultural practice an SF of ≧1.2 indicates significant improvement over the purely complementary addition of activities (expected activity), while an SF of ≦0.9 in the practical application routine signals a loss of activity compared to the expected activity.
Myzus persicae (Green Peach Aphid):
Feeding/Residual Contact Activity, Preventive
Sunflower leaf discs were placed on agar in a 24-well microtiter plate and sprayed with the DMSO test solutions of Mixtures (as provided by Table 45). After drying, the leaf discs were infested with an aphid population of mixed ages. After an incubation period of 6 DAT (days after treatment), samples were checked for mortality.

[2] = tested on: Tetranychus urticae (Two-Spotted Spider Mite); assay: Tetranychus urticae feeding/contact activity, preventive (bean leaf discs); format: in vivo; settings: single active ingredient, mobile stages
Excerpt: as §1, §2, §3, §4, §5, §6
Tetranychus urticae (Two-Spotted Spider Mite): Feeding/Contact Activity, Preventive
Bean leaf discs on agar in 24-well microtiter plates were sprayed with the DMSO test solutions of certain Mixtures (as provided by Table 45). After drying, the leaf discs were infested with mite populations of mixed ages. 8 days later, discs were checked for mortality against mobile stages.

Q: Which “AVERAGE DEAD IN % AFTER 6 DAYS” value ([1]; 0.75 ppm AI) does the source give for `N#CCNC(=O)c1cnccc1C(F)(F)F` [Flonicamid] here?
A: 0%

Q: And the “AVERAGE DEAD IN % AFTER 6 DAYS” value ([1]; 1.5 ppm AI)?
A: 0%

Q: What about the “AVERAGE DEAD IN % AFTER 6 DAYS” value ([1]; 3 ppm AI) of the same compound?
A: 7.5%

Q: What about the “AVERAGE DEAD IN % AFTER 6 DAYS” value ([1]; 6 ppm AI) of the same compound?
A: 40%

Q: What about the “AVERAGE DEAD IN % AFTER 6 DAYS” value ([1]; 12 ppm AI) of the same compound?
A: 82.5%

Q: And the “AVERAGE DEAD IN % AFTER 8 DAYS” value ([2]; 50 ppm AI)?
A: 0%

Q: And the “AVERAGE DEAD IN % AFTER 8 DAYS” value ([2]; 100 ppm AI)?
A: 0%

Q: What about the “AVERAGE DEAD IN % AFTER 8 DAYS” value ([2]; 200 ppm AI) of the same compound?
A: 0%

Q: And the “AVERAGE DEAD IN % AFTER 8 DAYS” value ([2]; 400 ppm AI)?
A: 0%

Q: What about the “AVERAGE DEAD IN % AFTER 8 DAYS” value ([2]; 800 ppm AI) of the same compound?
A: 12.5%
